The values below are quoted from earlier work in patent US9089677B2, “Transcutaneous multimodal delivery system (TMDS)” (The Regents of the University of California, priority 2011, dated 2015).

Read-outs that look alike come from different tables or passages of the source.

One data set has as its system fibroblasts. To be noted: cited from earlier work.
The subject of the next data set is keratinocytes. To be noted: cited from earlier work.
Data set [1] concerns fungal subspecies (e.g., Candida albicans or glabrata as well as Mucor and Aspergillus). As to conditions: time kill-kinetic; cited from earlier work.
Data set [2] concerns keratinocyte and fibroblast. As to conditions: 10% solution; cited from earlier work.
For data set [3] the following is noted: up to 3 mg/kg subcutaneously or intravenously in mice, rats, and monkey; cited from earlier work.
The conditions of data set [4]: diabetic rodent wounds; cited from earlier work.
For data set [5] the following is noted: full thickness pig burn wounds; cited from earlier work.
For data set [6], the system named is normal rat kidney fibroblast (NRK, clone 49F). As to conditions: NRK fibroblast proliferation; cited from earlier work.

Take `NCc1ccc(S(N)(=O)=O)cc1` [MA, mafenide acetate]: the “lowest dose with reported in vitro toxicity” value in the data set on fibroblasts is 0.1%; with keratinocytes, 0.85%.
For the compound `O=[N+]([O-])[O-].[Ag+]` [silver nitrate], the “antimicrobial activity against fungal subspecies” value in data set [1] is listed as “activity for only C. albicans”. Moreover, the “keratinocyte and fibroblast toxicity” value in data set [2] is “keratinocyte and fibroblast toxicity”.
Take “becaplermin: recombinant human PDGF (rhPDGF)-BB homodimer”: the “acute toxicity and mortality” value in data set [3] is “no significant acute toxicity or any mortality”. For the same compound, in data set [4], the granulation tissue formation entry is given as “significantly increased granulation tissue formation” and the reepithelialization result is “did not promote faster reepithelialization”. Besides, in data set [5], the granulation tissue formation entry is “significantly increased granulation tissue formation” and the reepithelialization entry is listed as “did not promote faster reepithelialization”. Further, the half maximal activity in data set [6] was 0.5 ng/mL.
